Reference: patent US20160047805A1, “IN SITU-DILUTION METHOD AND SYSTEM FOR MEASURING MOLECULAR AND CHEMICAL INTERACTIONS” (FLIR SYSTEMS, INC., priority 2010, published 2016)

Legend:
[1] = test system: immobilized carbonic anhydrase; test: SPR kinetic analysis, traditional (stepped/sequential multiple) injection method, thermodynamic analysis; settings: HEPES buffer saline pH 7.4, 10, 20, 30, 40 C, 1:1 binding model
Protocol: (§1) In Example 1, the kinetic values for the interaction between carboxybeneze sulfonamide and immobilized carbonic anhydrase were determined using a standard multiple injection method and the in situ dilution method described herein. In the classical approach sequential injection method (FIGS. 4A-4D) a series of individual concentrations were prepared as a serial doubling dilution set starting from a neat concentration of 40 mM giving a total of nine different concentrations. These concentrations were made up in the running buffer (i.e HEPES buffer saline, pH 7.4). […] of each sample was injected at […] and allowed dissociate for 300 seconds. Each concentration was repeated in duplicate and the entire analysis was repeated at four different analysis temperatures (10 C, 20 C, 30 C, 40 C—FIGS. 4A-D, respectively). […] In this case a total of three interaction curves is recorded at three different temperatures representing a minimal data set that can be recorded at least an order faster than the conventional approach even normalized for the number replicates and the number of temperatures used. A single neat sample (40 mM) was injected using the in-situ-dilution injection and a serial doubling dilution of analyte was performed on-the-fly yielding a dose response curve. Dissociation was monitored for 200 seconds. This was repeated at three different temperatures. A blank injection was also included at each temperature for double referencing.
(§2) In both data sets the samples were injected over a protein coated and a non-coated surface to enable double referencing of the binding response curves. The resulting referenced binding response curves were then fitted with a kinetic 1:1 binding interaction model and the fitted curves are shown in red. The kinetic values were then analyzed thermodynamically to determined thermodynamic constants for the interaction and these are shown in Tables 1 and 2 below.

[2] = test system: immobilized carbonic anhydrase; test: SPR kinetic analysis, in situ dilution injection method, thermodynamic analysis; settings: three temperatures (10, 25, 35 °C), 1:1 binding model
Protocol: as §1, §2

SMILES: NS(=O)(=O)c1ccc(C(=O)O)cc1 [carboxybeneze sulfonamide]
- ΔG‡ Association ([1]; association): 11.60 kcal/mol
- ΔH‡ Association ([1]; association): 3.96 kcal/mol
- ΔS‡ Association ([1]; association): −26.1 cal/mol K
- ΔG‡ Dissociation ([1]; dissociation): 19.32 kcal/mol
- ΔH‡ Dissociation ([1]; dissociation): 14.63 kcal/mol
- ΔS‡ Dissociation ([1]; dissociation): −16.0 cal/mol K
- ΔG‡ Association ([2]; association): 11.1 kcal/mol
- ΔH‡ Association ([2]; association): 4.1 kcal/mol
- ΔS‡ Association ([2]; association): −24 cal/mol K
- ΔG‡ Dissociation ([2]; dissociation): 18.8 kcal/mol
- ΔH‡ Dissociation ([2]; dissociation): 13.1 kcal/mol
- ΔS‡ Dissociation ([2]; dissociation): −20 cal/mol K
